From US20200131129A1, “FARNESOID X RECEPTOR AGONISTS AND USES THEREOF” (Metacrine, Inc., priority 2017, published 2020)

target: T1, hFXR (Homo sapiens, UniProt Q96RI1); experiment: In Vitro FXR Assay (TK): hFXR/hRXR TK-ECRE-luc reporter in transfected CV-1 cells; format: cell-based; details: CV-1 cells transfected with hFXR, hRXR, 18 hrs incubation, luminescence, maximum efficacy <25% of Fexarmine control also classified as ‘+’
T1 construct: expressed in transfected cells; host or cells: CV-1 cells
T1 sequence (Q96RI1 1-486): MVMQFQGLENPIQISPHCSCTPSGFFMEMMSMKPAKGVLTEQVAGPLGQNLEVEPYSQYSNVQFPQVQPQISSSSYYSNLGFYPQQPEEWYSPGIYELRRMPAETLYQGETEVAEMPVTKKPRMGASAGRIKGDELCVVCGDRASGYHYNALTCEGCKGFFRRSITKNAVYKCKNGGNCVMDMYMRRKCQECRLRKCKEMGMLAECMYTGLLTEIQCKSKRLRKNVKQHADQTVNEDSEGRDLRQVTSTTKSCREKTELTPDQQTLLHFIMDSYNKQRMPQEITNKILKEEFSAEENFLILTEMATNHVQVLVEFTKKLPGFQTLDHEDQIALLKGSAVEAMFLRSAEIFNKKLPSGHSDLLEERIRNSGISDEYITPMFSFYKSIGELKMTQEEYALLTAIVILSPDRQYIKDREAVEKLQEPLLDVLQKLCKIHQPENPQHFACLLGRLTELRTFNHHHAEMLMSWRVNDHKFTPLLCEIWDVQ
T1 sequence (P19793 1-462 partner): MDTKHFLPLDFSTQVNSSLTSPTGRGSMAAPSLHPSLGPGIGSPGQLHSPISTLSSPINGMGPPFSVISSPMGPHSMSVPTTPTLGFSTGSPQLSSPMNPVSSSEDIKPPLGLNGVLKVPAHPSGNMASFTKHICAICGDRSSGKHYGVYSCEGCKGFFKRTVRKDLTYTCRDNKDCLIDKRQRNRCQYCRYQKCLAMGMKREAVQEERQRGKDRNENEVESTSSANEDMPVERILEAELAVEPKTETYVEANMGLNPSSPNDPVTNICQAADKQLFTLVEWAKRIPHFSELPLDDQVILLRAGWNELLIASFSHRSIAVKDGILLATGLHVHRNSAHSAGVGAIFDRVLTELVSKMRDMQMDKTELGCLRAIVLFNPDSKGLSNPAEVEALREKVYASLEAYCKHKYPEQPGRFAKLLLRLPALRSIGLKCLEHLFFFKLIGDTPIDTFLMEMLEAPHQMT
Procedure, shortened: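 CV-1 cells in charcoal-stripped serum were transiently transfected with hFXR, hRXR, TK-ECRE-luc reporter and pCMX-YFP plasmids for 18 h at 37 °C. Serially diluted compounds were added for 18 h, then cells were lysed and luciferase luminescence read.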

EC50, ≤ 500 nM:
COc1ccc([C@H]2CC[C@H](CN(c3cccc(C#Cc4cn(C)nn4)c3)C(=O)[C@H]3CC[C@H](O)CC3)CC2)cc1C [Compound 12.02, trans-4-Hydroxy-N-((trans-4-(4-methoxy-3-methylphenyl)cyclohexyl)methyl)-N-(3-((1-methyl-1H-1,2,3-triazol-4-yl)ethynyl)phenyl)cyclohexanecarboxamide]
COc1ccc([C@H]2CC[C@H](CN(c3cccc(C#Cc4nnc[nH]4)c3)C(=O)[C@H]3CC[C@H](O)CC3)CC2)cc1C [Compound 14, trans-N-(3-((1H-1,2,4-Triazol-3-yl)ethynyl)phenyl)-4-hydroxy-N-((trans-4-(4-methoxy-3-methylphenyl)cyclohexyl)methyl)cyclohexanecarboxamide]
COc1ccc([C@H]2CC[C@H](CN(c3cccc(C#Cc4cn[nH]n4)c3)C(=O)[C@H]3CC[C@H](O)CC3)CC2)cc1C [Compound 14.01, trans-N-(3-((2H-1,2,3-Triazol-4-yl)ethynyl)phenyl)-4-hydroxy-N-((trans-4-(4-methoxy-3-methylphenyl)cyclohexyl)methyl) cyclohexanecarboxamide]
